Values joined by “and” are separate entries in the source; they are usually repeats but may differ in a detail not shown here. Identical values can stand only once. Toxic doses and inconclusive results are not listed.
System: P388 leukemia ip, CD2F1 mice, survival T/C
Test: NCI In Vivo Anticancer Drug Screen. Data for tumor model P388 Leukemia (intraperitoneal) in CD2F1 (CDF1) mice
Conditions: endpoint: median survival time, higher = longer survival
In short: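 Mice carrying the transplanted tumor received test compound or vehicle. Survival was recorded in each group, and the value is the treated-group measurement divided by that of the vehicle-treated control group.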

[1] = dose: 50.0 mg/kg/injection, schedule: Q01DX005 (ip), vehicle: Klucel (hydroxypropylcellulose) (HPC)

CC1(C)OC2OC(CN=NNc3ccc([N+](=O)[O-])cc3)C3OC(C)(C)OC3C2O1 (configuration not stated)
T/C (dose: 60.0 mg/kg/injection, schedule: Q01DX005 (ip), vehicle: Klucel + Tween-80): 100 % of control | T/C (dose: 120.0 mg/kg/injection, schedule: Q01DX005 (ip), vehicle: Klucel + Tween-80): 91 % of control | T/C (dose: 240.0 mg/kg/injection, schedule: Q01DX005 (ip), vehicle: Klucel + Tween-80): 87 % of control

COC(=O)NC1C(C)OC(OC2C/C=C(/C)C3C=CC4C(OC5CC(OC6CC(O)C(OC7CC(O)C(OC)C(C)O7)C(C)O6)C(O)C(C)O5)C(C)CC(C)C4C3(C)/C(O)=C3\C(=O)OC4(CC(C)C(CO)=CC4/C=C\2C)C3=O)CC1(C)[N+](=O)[O-] (configuration not stated)
T/C [1]: 118 % of control and 123 % of control

CN(C)C1=NC(NC(C)(C)C)(N(C)C)OC(N(C)C)=N1 (configuration not stated)
T/C (dose: 25.0 mg/kg/injection, schedule: Q01DX005 (ip), vehicle: saline): 100 % of control | T/C (dose: 50.0 mg/kg/injection, schedule: Q01DX005 (ip), vehicle: saline): 100 % of control | T/C (dose: 100.0 mg/kg/injection, schedule: Q01DX005 (ip), vehicle: saline): 104 % of control

CC(=O)OC(CC(=O)CC(O)(C(F)(F)F)C(F)(F)F)(C(F)(F)F)C(F)(F)F
T/C (dose: 6.25 mg/kg/injection, schedule: Q04DX003 (ip), vehicle: saline): 104 % of control | T/C (dose: 12.5 mg/kg/injection, schedule: Q04DX003 (ip), vehicle: saline): 90 % of control

C=Cc1c(C#N)nc(C)c(C)c1-c1ccc(OC)c(OC)c1OCc1ccccc1
T/C [1]: 101 % of control | T/C (dose: 100.0 mg/kg/injection, schedule: Q01DX005 (ip), vehicle: Klucel (hydroxypropylcellulose) (HPC)): 95 % of control | T/C (dose: 200.0 mg/kg/injection, schedule: Q01DX005 (ip), vehicle: Klucel (hydroxypropylcellulose) (HPC)): 108 % of control

CCC/C(=N\NC(N)=NC)c1ccc2c(c1)Cc1cc(/C(CCC)=N/NC(N)=NC)ccc1-2
T/C (dose: 3.12 mg/kg/injection, schedule: Q04DX002 (ip), vehicle: saline with Tween-80): 96 % of control | T/C (dose: 6.25 mg/kg/injection, schedule: Q04DX002 (ip), vehicle: saline with Tween-80): 100 % of control

O=[N+]([O-])c1cccc(CNc2ccccc2)c1
T/C (dose: 100.0 mg/kg/injection, schedule: Q04DX003 (ip), vehicle: Klucel (hydroxypropylcellulose) (HPC)): 101 % of control | T/C (dose: 200.0 mg/kg/injection, schedule: Q04DX003 (ip), vehicle: Klucel (hydroxypropylcellulose) (HPC)): 101 % of control | T/C (dose: 400.0 mg/kg/injection, schedule: Q04DX003 (ip), vehicle: Klucel (hydroxypropylcellulose) (HPC)): 109 % of control

Cc1ccc(S(=O)(=O)NC(=O)Nc2sc(=S)c3c(c2C#N)CCCC3)cc1
T/C (dose: 50.0 mg/kg/injection, schedule: Q01DX005 (ip), vehicle: saline with Tween-80): 100 % of control | T/C (dose: 100.0 mg/kg/injection, schedule: Q01DX005 (ip), vehicle: saline with Tween-80): 103 % of control

CCOP(=S)(OCC)Oc1ccccc1
T/C (dose: 100.0 mg/kg/injection, schedule: Q04DX002 (ip), vehicle: saline): 104 % of control | T/C (dose: 200.0 mg/kg/injection, schedule: Q04DX002 (ip), vehicle: saline): 113 % of control | T/C (dose: 400.0 mg/kg/injection, schedule: Q04DX002 (ip), vehicle: saline): 115 % of control

CN(C)CCCOc1ccc(NC2=C(Cl)C(=O)C(Nc3ccc(OCCCN(C)C)cc3)=C(Cl)C2=O)cc1
T/C (dose: 6.25 mg/kg/injection, schedule: Q01DX005 (ip), vehicle: suspension in saline): 101 % of control | T/C (dose: 12.5 mg/kg/injection, schedule: Q01DX005 (ip), vehicle: suspension in saline): 101 % of control | T/C (dose: 25.0 mg/kg/injection, schedule: Q01DX005 (ip), vehicle: suspension in saline): 103 % of control

O=C(NO)/C(CC(=O)c1ccc(O)cc1)=N\O
T/C (dose: 60.0 mg/kg/injection, schedule: Q01DX005 (ip), vehicle: saline with Tween-80): 104 % of control | T/C (dose: 120.0 mg/kg/injection, schedule: Q01DX005 (ip), vehicle: saline with Tween-80): 101 % of control | T/C (dose: 240.0 mg/kg/injection, schedule: Q01DX005 (ip), vehicle: saline with Tween-80): 105 % of control

Cn1c(=O)c2c(nc(/N=C/c3ccc([N+](=O)[O-])cc3)n2C)n(C)c1=O
T/C (dose: 100.0 mg/kg/injection, schedule: Q04DX003 (ip), vehicle: saline): 100 % of control | T/C (dose: 200.0 mg/kg/injection, schedule: Q04DX003 (ip), vehicle: saline): 86 % of control | T/C (dose: 400.0 mg/kg/injection, schedule: Q04DX003 (ip), vehicle: saline): 93 % of control

O=C(C[n+]1ccccc1)c1ccccc1
T/C (dose: 12.5 mg/kg/injection, schedule: Q01DX009 (ip), vehicle: saline): 105 % of control | T/C (dose: 25.0 mg/kg/injection, schedule: Q01DX009 (ip), vehicle: saline): 104 % of control | T/C (dose: 50.0 mg/kg/injection, schedule: Q01DX009 (ip), vehicle: saline): 96 % of control

CO[C@@H]1[C@H](O)c2ccccc2N1C(C)=O
T/C (dose: 60.0 mg/kg/injection, schedule: Q01DX005 (ip), vehicle: saline): 102 % of control | T/C (dose: 120.0 mg/kg/injection, schedule: Q01DX005 (ip), vehicle: saline): 108 % of control | T/C (dose: 240.0 mg/kg/injection, schedule: Q01DX005 (ip), vehicle: saline): 101 % of control

From PubChem BioAssay AID330 (DTP/NCI, 2004)
